One data set concerns Phakopsora pachyrhizi. Put plainly: In vivo preventive test on Phakopsora (soybeans). Particulars: 168 h, young soybean plants sprayed, 10 ppm of active ingredient, evaluated 7 days after inoculation, 0% = untreated control, 100% = no disease, read-out: efficacy. Details: species or system Phakopsora pachyrhizi (soybean rust) on soybeans. As for the experimental part: Example: In Vivo Preventive Test on Phakopsora Test (Soybeans)
To produce a suitable preparation of active compound, 1 part by weight of active compound is mixed with the stated amounts of solvent and emulsifier, and the concentrate is diluted with water to the desired concentration.
To test for preventive activity, young plants are sprayed with the preparation of active compound at the stated rate of application. After the spray coating has dried on, the plants are inoculated with an aqueous spore suspension of the causal agent of soybean rust (Phakopsora pachyrhizi) and stay for 24 h without light in an incubation cabinet at approximately 24° C. and a relative atmospheric humidity of 95%.
The plants remain in the incubation cabinet at approximately 24° C. and a relative atmospheric humidity of approximately 80% and a day/night interval of 12 h.
The test is evaluated 7 days after the inoculation. 0% means an efficacy which corresponds to that of the untreated control, while an efficacy of 100% means that no disease is observed.

Data set [1] can be described thus: Log P measurement by HPLC on reversed phase columns (EEC directive 79/831 Annex V.A8). The class given is physicochemical. The conditions noted are these: LC-UV; for chromatographic logP: reversed phase HPLC column. The method, then:
[table] Measurement of Log P values was performed according to EEC directive 79/831 Annex V.A8 by HPLC (High Performance Liquid Chromatography) on reversed phase columns with the following methods: If more than one Log P value is available within the same method, all the values are given and separated by “+”. […] Lambda-max-values were determined using UV-spectra from 200 nm to 400 nm and the peak values of the chromatographic signals.

[2] abbreviates: acidic range, 0.1% formic acid in water and acetonitrile as eluent (linear gradient 10% to 95% acetonitrile), read-out: LogP [a].
Setting [3] is: neutral range, 0.001 molar ammonium acetate solution in water and acetonitrile as eluent (linear gradient 10% to 95% acetonitrile), read-out: LogP [b].
Where [4] appears, read: acidic range, 0.1% formic acid in water and acetonitrile as eluent (linear gradient 10% to 95% acetonitrile).
[5] abbreviates: neutral range, 0.001 molar ammonium acetate solution in water and acetonitrile as eluent (linear gradient 10% to 95% acetonitrile).

The structures appear in SMILES notation. Like-named read-outs stand apart in the source and are kept apart here.

Here are results for 29 molecules from patent publication US20190308933A1, “PHENYLAMIDINES AND THE USE THEREOF AS FUNGICIDES” (priority 2016, published 2019).

Consider `CCN(C)C=Nc1cc(C)c(Cc2ccccc2C#N)cc1Cl` [Example 1, N′-[2-chloro-4-[(2-cyanophenyl)methyl]-5-methylphenyl]-N-ethyl-N-methylmethanimidamide], for which, in the data set on Phakopsora pachyrhizi, the pest or weed control at 10 ppm lay in the range of 80 to 89%. The chromatographic logP in data set [1] (setting [2]) is 1.41; in data set [1] (setting [3]) it was 3.86.
Taken in the same sequence, the figures for `CCN(C)C=Nc1cc(C)c(Cc2ccccc2F)cc1Cl` [Example 2, N′-[2-chloro-4-[(2-fluorophenyl)methyl]-5-methylphenyl]-N-ethyl-N-methylmethanimidamide] were 90 to 100%, 1.52 and 4.5.
`CCN(C)C=Nc1cc(C)c(Cc2ccccc2)cc1Cl` [Example 3, N′-(4-benzyl-2-chloro-5-methylphenyl)-N-ethyl-N-methylmethanimidamide]: in the data set with Phakopsora pachyrhizi, the pest or weed control at 10 ppm fell in the range of 90 to 100%. Further, the chromatographic logP in data set [1] (setting [2]) was 1.49.
`CCN(C)C=Nc1cc(Cl)c(Cc2ccccc2C#N)cc1C` [Example 4, N′-[5-chloro-4-[(2-cyanophenyl)methyl]-2-methylphenyl]-N-ethyl-N-methylmethanimidamide]: the chromatographic logP was determined as 1.38 in data set [1] (setting [2]) and 4.38 in data set [1] (setting [3]).
Take `CCN(C)C=Nc1cc(Cl)c(Cc2ccccc2F)cc1C` [Example 5]: the “LogP [a]” value in data set [1] (setting [4]) was 1.58[a];. Besides, the “LogP [b]” value in data set [1] (setting [5]) was 2.99[b].
As to `CCN(C)C=Nc1cc(Cl)c(Cc2ccccc2)cc1C` [Example 6, N′-(4-benzyl-5-chloro-2-methylphenyl)-N-ethyl-N-methylmethanimidamide], the pest or weed control at 10 ppm with Phakopsora pachyrhizi was 90 to 100%. The chromatographic logP in data set [1] (setting [2]) turned out to be 1.72; in data set [1] (setting [3]) it was 5.16.
For the molecule `CCN(C)C=Nc1cc(C)c(Cc2ccccc2Cl)cc1C` [Example 7, N′-[4-[(2-chlorophenyl)methyl]-2,5-dimethylphenyl]-N-ethyl-N-methylmethanimidamide], the chromatographic logP in data set [1] (setting [2]) stood at 1.92; in data set [1] (setting [3]), 5.16.
`CCN(C)C=Nc1cc(C)c(Cc2ccccc2C#N)cc1C` [Example 8, N′-[4-[(2-cyanophenyl)methyl]-2,5-dimethylphenyl]-N-ethyl-N-methylmethanimidamide]: the pest or weed control at 10 ppm in the data set with Phakopsora pachyrhizi lay within 90 to 100%. Besides, the chromatographic logP came to 1.47 in data set [1] (setting [2]) and 4.15 in data set [1] (setting [3]).
Taken in the same sequence, the figures for `CCN(C)C=Nc1cc(C)c(Cc2ccc(F)cc2F)cc1C` [Example 9, N′-[4-[(2,4-difluorophenyl)methyl]-2,5-dimethylphenyl]-N-ethyl-N-methylmethanimidamide] were 90 to 100%, 1.79 and 4.86.
The corresponding values for `CCN(C)C=Nc1cc(C)c(Cc2ccccc2F)cc1C` [Example 10, N-ethyl-N′-[4-[(2-fluorophenyl)methyl]-2,5-dimethylphenyl]-N-methylmethanimidamide] are 90 to 100%, 1.6 and 4.87.
Taken in the same sequence, the figures for `CCN(C)C=Nc1cc(C)c(Cc2ccccc2)cc1C` [Example 11, N′-(4-benzyl-2,5-dimethylphenyl)-N-ethyl-N-methylmethanimidamide] were 90 to 100%, 1.58 and 4.9.
In the case of `Cc1cc(N=CN(C)C(C)C)c(C)cc1Cc1ccc(F)cc1F` [Example 12, N′-[4-[(2,4-difluorophenyl)methyl]-2,5-dimethylphenyl]-N-isopropyl-N-methylmethanimidamide], the pest or weed control at 10 ppm in the data set on Phakopsora pachyrhizi lay within 90 to 100%. Besides, the chromatographic logP in data set [1] (setting [2]) amounted to 1.92; in data set [1] (setting [3]), 5.31.
On to `CCN(C)C=Nc1cc(C)c(C2(c3ccccc3)CC2)cc1C` [Example 13, N′-[2,5-dimethyl-4-(1-phenylcyclopropyl)phenyl]-N-ethyl-N-methylmethanimidamide], for which the pest or weed control at 10 ppm with Phakopsora pachyrhizi lay in the range of 90 to 100%. Besides, the chromatographic logP in data set [1] (setting [2]) was 1.85.
Taken in the same sequence, the figures for `CCN(C)C=Nc1cc(C)c(C2(c3ccccc3)CC2(F)F)cc1C` (stereo not shown) [Example 14, N′-[4-(2,2-difluoro-1-phenylcyclopropyl)-2,5-dimethylphenyl]-N-ethyl-N-methylmethanimidamide] were 90 to 100% and 1.63.
Take `CCN(C)C=Nc1cc(C)c(C2(c3ccccc3)CC2(Cl)Cl)cc1C` (stereo not shown) [Example 15, N′-[4-(2,2-dichloro-1-phenylcyclopropyl)-2,5-dimethylphenyl]-N-ethyl-N-methylmethanimidamide]: in data set [1] (setting [2]), the chromatographic logP is 1.83.
Still for that read-out and setting: the value for `CCN(C)C=Nc1cc(C)c(C2(c3ccccc3)CC2(Br)Br)cc1C` (stereo not shown) [Example 16, N′-[4-(2,2-dibromo-1-phenylcyclopropyl)-2,5-dimethylphenyl]-N-ethyl-N-methylmethanimidamide] was 1.89.
On to `CCN(C)C=Nc1cc(Cl)c(C(C)c2ccccc2)cc1C` (stereo not shown) [Example 18, N′-[5-chloro-2-methyl-4-(1-phenylethyl)phenyl]-N-ethyl-N-methylmethanimidamide], for which, in the data set on Phakopsora pachyrhizi, the pest or weed control at 10 ppm is 90 to 100%. Also, the chromatographic logP is 1.58 in data set [1] (setting [2]) and 5.32 in data set [1] (setting [3]).
For the molecule `C=C(c1ccccc1)c1cc(C)c(N=CN(C)CC)cc1Cl` [Example 19, N′-[5-chloro-2-methyl-4-(1-phenylethen-1-yl)phenyl]-N-ethyl-N-methylmethanimidamide], the pest or weed control at 10 ppm in the data set on Phakopsora pachyrhizi lay in the range of 80 to 89%. The chromatographic logP came out at 1.58 in data set [1] (setting [2]) and 5.24 in data set [1] (setting [3]).
The corresponding values for `CCN(C)C=Nc1cc(F)c(Cc2ccccc2)cc1C` [Example 20, N′-(4-benzyl-5-fluoro-2-methylphenyl)-N-ethyl-N-methylmethanimidamide] are 90 to 100%, 2 and 4.62.
For the molecule `CCN(C)C=Nc1cc(Cl)c(Cc2ccccc2-c2ccccc2)cc1C` [Example 25, N′-[5-chloro-2-methyl-4-[(2-phenylphenyl)methyl]phenyl]-N-ethyl-N-methylmethanimidamide], the chromatographic logP in data set [1] (setting [2]) amounted to 2.05; in data set [1] (setting [3]), 6.02.
With `CCN(C)C=Nc1cc(C)c(Cc2ccccc2OC)cc1Cl` [Example 26, N′-[2-chloro-4-[(2-methoxyphenyl)methyl]-5-methylphenyl]-N-ethyl-N-methylmethanimidamide], the chromatographic logP in data set [1] (setting [2]) was found to be 1.53; in data set [1] (setting [3]), 4.45.
The corresponding values for `CCN(C)C=Nc1cc(C)c(C(C)c2ccccc2)cc1Cl` (stereo not shown) [Example 27, N′-[2-chloro-5-methyl-4-(1-phenylethyl)phenyl]-N-ethyl-N-methylmethanimidamide] are 1.61 and 4.7.
The corresponding values for `CCN(C)C=Nc1cc(C)c(Cc2ccccc2Cl)cc1Cl` [Example 28, N′-[2-chloro-4-[(2-chlorophenyl)methyl]-5-methylphenyl]-N-ethyl-N-methylmethanimidamide] are 1.63 and 4.93.
In the case of `CCN(C)C=Nc1cc(Cl)c(Cc2ccccc2OC)cc1C` [Example 29], in data set [1] (setting [4]), the “LogP [a]” value was 1.58^[a];. Besides, the “LogP [b]” value in data set [1] (setting [5]) is 4.95^[b].
With `C=C(c1ccccc1)c1cc(Cl)c(N=CN(C)CC)cc1C` [Example 31, N′-[2-chloro-5-methyl-4-(1-phenylethen-1-yl)phenyl]-N-ethyl-N-methylmethanimidamide], the chromatographic logP in data set [1] (setting [2]) was determined as 1.66; in data set [1] (setting [3]), 4.93.
Taken in the same sequence, the figures for `CCN(C)C=Nc1cc(F)c(Cc2ccccc2OC)cc1C` [Example 32, N-ethyl-N′-[5-fluoro-4-[(2-methoxyphenyl)methyl]-2-methylphenyl]-N-methylmethanimidamide] were 1.46 and 4.34.
Take `CCN(C)C=Nc1cc(F)c(Cc2ccccc2F)cc1C` [Example 33, N-ethyl-N′-[5-fluoro-4-[(2-fluorophenyl)methyl]-2-methylphenyl]-N-methylmethanimidamide]: the chromatographic logP turned out to be 1.41 in data set [1] (setting [2]) and 4.37 in data set [1] (setting [3]).
The corresponding values for `CCN(C)C=Nc1cc(F)c(C(C)c2ccccc2)cc1C` (stereo not shown) [Example 34, N-ethyl-N′-[5-fluoro-2-methyl-4-(1-phenylethyl)phenyl]-N-methylmethanimidamide] are 1.55 and 4.63.
The corresponding values for `CCN(C)C=Nc1cc(F)c(Cc2ccc(F)cc2F)cc1C` [Example 35, N′-[4-[(2,4-difluorophenyl)methyl]-5-fluoro-2-methylphenyl]-N-ethyl-N-methylmethanimidamide] are 1.52 and 4.54.
